According to article PMC8119466, “A screen of FDA-approved drugs identifies inhibitors of protein tyrosine phosphatase 4A3 (PTP4A3 or PRL-3)” (Scientific Reports, 2021):
Where a name gives a salt, the structure may show the parent alone.

What was measured:
Format in all cases: biochemical
Settings in all cases: FDA-approved drug screen; activity compared to DMSO
recombinant PRL-2 = molecular target: T1, recombinant PRL-2 (Homo sapiens, UniProt Q12974); test: In vitro phosphatase assay (DiFMUP hydrolysis), PRL-2;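 note: PRL-2 activity read as DiFMUP hydrolysis after 20 min at room temperature with drug, enzyme first pre-reduced at 4 °C for 20 min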
T1 construct: 6xHis (N, cleaved yes); made in house; host or cells: E. coli One Shot BL21 Star
T1 sequence (Q12974 1-167): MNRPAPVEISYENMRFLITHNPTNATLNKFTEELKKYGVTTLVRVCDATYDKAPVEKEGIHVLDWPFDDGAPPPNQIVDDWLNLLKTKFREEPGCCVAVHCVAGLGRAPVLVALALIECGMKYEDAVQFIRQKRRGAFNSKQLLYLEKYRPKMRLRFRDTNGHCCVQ
Protocol: Briefly, protein was diluted in reaction buffer and allowed to incubate at 4 °C for 20 min to allow for full reduction of the active site. DiFMUP, drug, and protein were added, and plates were incubated for 20 min at room temperature. Fluorescence intensities were measured on a Cytation 5 plate reader (Biotek) at an EX:360 nm and EM:460 nm. […] Inhibition selectivity for PRLs over a panel of other phosphatases was determined using PhosphataseProfiler (Eurofins, Cat # PP260).

recombinant PRL-3 = molecular target: T2, recombinant PRL-3 (Homo sapiens, UniProt O75365); test: In vitro phosphatase assay (DiFMUP hydrolysis), PRL-3; note: test concentration or dose not given here
T2 construct: 6xHis (N, cleaved yes); made in house; host or cells: E. coli One Shot BL21 Star

recombinant PRL-1 = molecular target: T3, recombinant PRL-1 (Homo sapiens, UniProt Q93096); test: In vitro phosphatase assay (DiFMUP hydrolysis), PRL-1; note: test concentration or dose not given here
T3 construct: 6xHis (N, cleaved yes); made in house; host or cells: E. coli One Shot BL21 Star
T3 sequence (Q93096 1-173): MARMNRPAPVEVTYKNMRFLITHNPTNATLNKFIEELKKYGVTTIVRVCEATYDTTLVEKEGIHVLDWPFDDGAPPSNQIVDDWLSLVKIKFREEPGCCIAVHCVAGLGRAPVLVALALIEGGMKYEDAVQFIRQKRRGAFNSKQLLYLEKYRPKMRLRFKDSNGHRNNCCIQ

T2 sequence (O75365 whole entry): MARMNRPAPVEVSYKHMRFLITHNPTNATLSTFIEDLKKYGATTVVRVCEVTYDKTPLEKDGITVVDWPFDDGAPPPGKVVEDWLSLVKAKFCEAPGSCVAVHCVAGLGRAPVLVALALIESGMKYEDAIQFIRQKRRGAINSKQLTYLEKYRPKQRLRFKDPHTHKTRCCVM

| Compound | % Phosphatase Activity (compared to DMSO) PRL-2 (recombinant PRL-2) | % Phosphatase Activity (compared to DMSO) PRL-3 (recombinant PRL-3) | % Phosphatase Activity (compared to DMSO) PRL-1 (recombinant PRL-1) |
| --- | --- | --- | --- |
| CC(=O)[C@@]1(O)CC[C@H]2[C@@H]3CCC4=CC(=O)CCC4=C3[C@@H](c3ccc(N(C)C)cc3)C[C@@]21C [Ulipristal] | 92% | 79% | 95% |
| CC(C)Nc1cc(-c2c[nH]c(C(=O)N[C@H](CO)c3cccc(Cl)c3)c2)c(Cl)cn1 [Ulixertinib (BVD-523, VRT752271)] | 90% | 105% | 99% |
| Cn1ncc(Cl)c1-c1cc(C(=O)N[C@H](CN)Cc2ccc(F)c(F)c2)oc1Cl [Uprosertib (GSK2141795)] | 95% | 103% | 95% |
| O=c1cc[nH]c(=O)[nH]1 [Uracil] | 93% | 69% | 100% |
| COc1ccccc1N1CCN(CCCNc2cc(=O)n(C)c(=O)n2C)CC1.Cl [Urapidil HCl] | 97% | 92% | 98% |
| CCOC(N)=O [Urethane] | 100% | 91% | 99% |
| O=c1ccn([C@@H]2O[C@H](CO)[C@@H](O)[C@H]2O)c(=O)[nH]1 [Uridine] | 97% | 94% | 86% |
| C[C@H](CCC(=O)O)[C@H]1CC[C@H]2[C@@H]3[C@@H](O)C[C@@H]4C[C@H](O)CC[C@]4(C)[C@H]3CC[C@]12C [Ursodiol] | 79% | 77% | 96% |
| CC(C)(C)C#Cc1cc(N(C(=O)[C@H]2CC[C@H](C)CC2)[C@H]2CC[C@H](O)CC2)c(C(=O)O)s1 [VX-222 (VCH-222, Lomibuvir)] | 85% | 76% | 91% |
| Cc1cc(Nc2cc(N3CCN(C)CC3)nc(Sc3ccc(NC(=O)C4CC4)cc3)n2)n[nH]1 [VX-680 (Tozasertib, MK-0457)] | 87% | 82% | 89% |
| Cc1ccc(NC(=O)C2(c3ccc4c(c3)OC(F)(F)O4)CC2)nc1-c1cccc(C(=O)O)c1 [VX-809 (Lumacaftor)] | 96% | 90% | 112% |
| CC(C)[C@H](N)C(=O)OCCOCn1cnc2c(=O)nc(N)[nH]c21.Cl [Valaciclovir HCl] | 102% | 98% | 97% |
| Cc1onc(-c2ccccc2)c1-c1ccc(S(N)(=O)=O)cc1 [Valdecoxib] | 103% | 80% | 97% |
| CC(C)[C@H](N)C(=O)OCC(CO)OCn1cnc2c(=O)nc(N)[nH]c21 (stereo partly drawn) [Valganciclovir HCl] | 97% | 75% | 103% |
| C=C[C@]1(C)C[C@@H](OC(=O)CSC(C)(C)CNC(=O)[C@H](N)C(C)C)[C@]2(C)[C@H](C)CC[C@]3(CCC(=O)[C@H]32)[C@@H](C)[C@@H]1O.Cl [Valnemulin HCl] | 95% | 80% | 86% |
| CCCCC(=O)N(Cc1ccc(-c2ccccc2-c2nnn[nH]2)cc1)[C@H](C(=O)O)C(C)C [Valsartan] | 115% | 101% | 86% |
| CN[C@H](CC(C)C)C(=O)N[C@H]1C(=O)N[C@@H](CC(N)=O)C(=O)N[C@H]2C(=O)N[C@H]3C(=O)N[C@H](C(=O)N[C@H](C(=O)O)c4cc(O)cc(O)c4-c4cc3ccc4O)[C@H](O)c3ccc(c(Cl)c3)Oc3cc2cc(c3O[C@@H]2O[C@H](CO)[C@@H](O)[C@H](O)[C@H]2O[C@H]2C[C@](C)(N)[C@H](O)[C@H](C)O2)Oc2ccc(cc2Cl)[C@H]1O [Vancomycin HCl] | 109% | 99% | 99% |
| COc1cc2/c(=N/c3ccc(Br)cc3F)nc[nH]c2cc1OCC1CCN(C)CC1 [Vandetanib (ZD6474)] | 98% | 77% | 96% |

| Compound | % Phosphatase Activity (compared to DMSO) PRL-2 (recombinant PRL-2) | % Phosphatase Activity (compared to DMSO) PRL-3 (recombinant PRL-3) | % Phosphatase Activity (compared to DMSO) PRL-1 (recombinant PRL-1) |
| --- | --- | --- | --- |
| CCCc1nc(C)c2c(=O)[nH]c(-c3cc(S(=O)(=O)N4CCN(CC)CC4)ccc3OCC)nn12.Cl.O.O.O [Vardenafil HCl Trihydrate] | 98% | 84% | 98% |
| C[C@@H]1COC(Nc2ccc3ncnc(Nc4ccc(OCc5nccs5)c(Cl)c4)c3c2)=N1 [Varlitinib] | 142% | 132% | 126% |
| Cl.Cl.Clc1ccc(Nc2nnc(Cc3ccncc3)c3ccccc23)cc1 [Vatalanib (PTK787) 2HCl] | 96% | 72% | 109% |
| CC(=O)O[C@H]1C[C@@H]2CC[C@@H]3[C@H](CC[C@@]4(C)[C@H]3C[C@H]([N+]3(C)CCCCC3)[C@@H]4OC(C)=O)[C@@]2(C)C[C@@H]1N1CCCCC1 [Vecuronium Bromide] | 100% | 87% | 103% |
| C[C@]1(c2nc3c(C(N)=O)cccc3[nH]2)CCCN1 [Veliparib (ABT-888)] | 99% | 83% | 108% |
| CCCS(=O)(=O)Nc1ccc(F)c(C(=O)c2c[nH]c3ncc(-c4ccc(Cl)cc4)cc23)c1F [Vemurafenib (PLX4032, RG7204)] | 89% | 80% | 89% |
| COc1ccc(C(CN(C)C)C2(O)CCCCC2)cc1 (stereo not drawn) [Venlafaxine] | 100% | 84% | 97% |
| Nc1ncnc2c1ncn2[C@@H]1O[C@H](CO)[C@@H](O)[C@@H]1O [Vidarabine] | 116% | 121% | 106% |
| COc1cccc(-c2ccc(NC(=O)C3=C(C(=O)O)CCC3)c(F)c2)c1 [Vidofludimus] | 72% | 91% | 97% |
| N#C[C@@H]1CCCN1C(=O)CNC12CC3CC(CC(O)(C3)C1)C2 [Vildagliptin (LAF-237)] | 136% | 94% | 99% |
| CC[C@]1(O)C[C@@H]2CN(CCc3c([nH]c4ccccc34)[C@@](C(=O)OC)(c3cc4c(cc3OC)N(C)[C@H]3[C@@](O)(C(=O)OC)[C@H](OC(C)=O)[C@]5(CC)C=CCN6CC[C@]43[C@@H]65)C2)C1 [Vinblastine sulfate] | 95% | 91% | 92% |
| CC[C@]1(O)C[C@H]2CN(CCc3c([nH]c4ccccc34)[C@@](C(=O)OC)(c3cc4c(cc3OC)N(C=O)[C@H]3[C@@](O)(C(=O)OC)[C@H](OC(C)=O)[C@]5(CC)C=CCN6CC[C@]43[C@@H]65)C2)C1 [Vincristine] | 100% | 61% | 85% |
| CCC1=C[C@@H]2CN(C1)Cc1c([nH]c3ccccc13)[C@@](C(=O)OC)(c1cc3c(cc1OC)N(C)[C@H]1[C@@](O)(C(=O)OC)[C@H](OC(C)=O)[C@]4(CC)C=CCN5CC[C@]31[C@@H]54)C2 [Vinorelbine Tartrate] | 98% | 83% | 89% |
| CCOC(=O)C1=C[C@]2(CC)CCCN3CCc4c(n1c1ccccc41)[C@@H]32 [Vinpocetine] | 114% | 79% | 95% |
| CS(=O)(=O)c1ccc(C(=O)Nc2ccc(Cl)c(-c3ccccn3)c2)c(Cl)c1 [Vismodegib (GDC-0449)] | 99% | 79% | 94% |
| O=C1O[C@H]([C@@H](O)CO)C(O)=C1O [Vitamin C] | 105% | 75% | 96% |
| C=C1CC[C@H](O)C/C1=C/C=C1\CCC[C@]2(C)[C@@H]([C@H](C)/C=C/[C@H](C)C(C)C)CC[C@@H]12 [Vitamin D2] | 99% | 84% | 95% |
